Read-outs that look alike come from different tables or passages of the source. A value given as a limit tells only on which side of the number the result lay.

Data set [1] relates to Collagen I (COL1A1) in LX-2 cells. Put plainly: Collagen and Alpha-SMA in LX-2 (Western blot after TGF-β stimulation).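 Note: cells serum-starved in 0.4% FBS before treatment, lysates analysed by Western blot, DMSO-only wells as blank and TGF-β alone as maximal induction control, three independent experiments.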 It is filed as cell-based. Conditions: Homo sapiens, 4 ng/ml TGF-β for 48 hours, Collagen I normalized to GAPDH. A general note: Immunoblotting shows a protein as a band on a membrane.
Protocol: 3 ml of 0.25% Trypsin-EDTA solution was then added and cells were incubated at 37° C. for 5 min for each T150-flask. 7 ml of culture medium was added to stop trypsinization. The cells were centrifuged at 300×g for 5 min. Supernatant medium was discarded and cells were re-suspended with fresh culture medium. The cells were counted with Cell viability analyzer. 5.0E+05 cells/well were seeded into 6-well plate containing 2.0 mL of culture medium. The cells were cultured overnight at 37° C. The next day, the complete medium was replaced with medium with 0.4% FBS for starvation. […] In parallel, medium containing only DMSO and TGF-β was used as blank control and positive control, respectively. TGF-β induction was used as maximum induction positive control. The culture medium was discarded at the end of induction. Cells were washed once using ice-cold DPBS. RIPA buffer was added to lyse the cells for 20 min. The cells were then scraped off the culture plate, collected in a tube and centrifuged. The supernatant was stored at −80° C. The total amount of protein in the lysate was determined using BCA Protein Assay kit. The cell treatment of fibrosis assay was performed in three independent experiments for each compound.
All the lysate samples were adjusted to the same protein concentration with RIPA buffer after BCA assay. […] The denatured samples were used for electrophoresis. Western blot was performed according to the standard protocols. The same volume of protein was loaded onto 4-12% Bis-Tris gel. Duplicate lysates of samples were loaded onto two gels. The gels were run for 0.5 h at 80 V and 120 V for another 1 h. When the electrophoresis was completed, the gels containing target protein Collagen I (COL1A1) were transferred onto NC membrane using Trans-Blot Electrophoretic Transfer Cell for 90 min at 100 V. The iBlot™ 2 Gel Transfer Device was used to transfer α-SMA and GAPDH at 20 V for 7 min. All the membranes were blocked in TBST buffer with 5% nonfat dry milk in at RT for 1 h and then incubated with primary antibody anti-COL1A1 and anti-α-SMA in TBST buffer containing 5% BSA at 4° C. overnight. For GAPDH detection, the membrane with α-SMA immunoblots were stripped with Restore™ Western Blot Stripping Buffer after detection. And the membranes were re-blocked and then re-probed with primary antibody anti-GAPDH antibody at room temperature (RT) for 2 h. After incubation with primary antibodies, membranes were washed with TBST, then incubated with the secondary antibody at RT for 1 h. Blots were visualized using the instrument Image Quant LAS-4000. The chemiluminescent signals derived from ECL Western blotting reagents were captured. The bands integrated intensity from 16-bit blot images was used for quantitation with the software (1D component of ImageQuant TL). The quantification raw data of the two duplicated gels was obtained from ImageQuant TL. Collagen I and α-SMA proteins expression level was normalized to GAPDH for each gel. The average normalization data of the two duplicated gels was calculated and applied to calculate IC50 using an equation for a sigmoidal dose response (variable slope) of GraphPad™ Prism software. The equation is Y=Bottom+(Top-Bottom)/(1+10^((Log IC50−X)*Hillslope). Note: X is the logarithm of compound concentration, Y is the average normalization data
In data set [2] the target is MAP4K4 (h) (Homo sapiens (Human), UniProt O95819). The data set can be described thus: MAP4K4 Human STE Kinase Enzymatic Radiometric Assay.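 Note: kinase activity remaining relative to the DMSO control, IC50 derived from sigmoidal variable-slope curve fits, no preincubation of compound with enzyme before ATP start.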 It counts as biochemical. Conditions: ATP 200 μM; 40 min at room temperature.
Chain of MAP4K4 (h) (O95819 whole entry): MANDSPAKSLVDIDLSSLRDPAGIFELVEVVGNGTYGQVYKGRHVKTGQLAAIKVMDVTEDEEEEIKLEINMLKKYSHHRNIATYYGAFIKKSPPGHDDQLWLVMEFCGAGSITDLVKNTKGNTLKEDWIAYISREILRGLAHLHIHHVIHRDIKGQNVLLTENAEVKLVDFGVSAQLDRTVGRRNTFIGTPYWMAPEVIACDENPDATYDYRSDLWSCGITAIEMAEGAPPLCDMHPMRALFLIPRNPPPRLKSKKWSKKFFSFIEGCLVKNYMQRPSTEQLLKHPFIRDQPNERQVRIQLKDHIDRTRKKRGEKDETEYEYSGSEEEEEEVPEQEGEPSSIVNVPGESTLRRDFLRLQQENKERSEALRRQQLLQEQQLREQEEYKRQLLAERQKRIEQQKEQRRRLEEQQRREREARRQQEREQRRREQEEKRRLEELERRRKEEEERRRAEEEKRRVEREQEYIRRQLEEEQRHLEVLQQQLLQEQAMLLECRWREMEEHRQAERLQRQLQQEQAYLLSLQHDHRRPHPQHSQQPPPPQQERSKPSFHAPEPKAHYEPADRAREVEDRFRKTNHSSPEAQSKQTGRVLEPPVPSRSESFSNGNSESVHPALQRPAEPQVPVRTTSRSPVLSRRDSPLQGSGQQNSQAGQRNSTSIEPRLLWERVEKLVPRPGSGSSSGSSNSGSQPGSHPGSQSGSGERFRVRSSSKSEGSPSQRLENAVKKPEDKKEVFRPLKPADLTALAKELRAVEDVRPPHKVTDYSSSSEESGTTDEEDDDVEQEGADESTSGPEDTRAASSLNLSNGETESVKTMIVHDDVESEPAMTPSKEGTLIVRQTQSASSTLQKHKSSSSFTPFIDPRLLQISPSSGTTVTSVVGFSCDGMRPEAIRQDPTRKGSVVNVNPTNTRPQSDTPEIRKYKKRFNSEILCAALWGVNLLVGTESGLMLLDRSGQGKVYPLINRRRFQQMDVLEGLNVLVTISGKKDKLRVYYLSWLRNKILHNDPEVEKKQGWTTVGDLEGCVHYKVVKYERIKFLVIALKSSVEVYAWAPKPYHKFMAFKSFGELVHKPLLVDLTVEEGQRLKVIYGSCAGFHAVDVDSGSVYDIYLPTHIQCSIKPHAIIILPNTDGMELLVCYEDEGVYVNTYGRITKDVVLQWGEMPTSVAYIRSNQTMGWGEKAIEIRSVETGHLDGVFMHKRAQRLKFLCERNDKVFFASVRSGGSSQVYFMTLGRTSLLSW
Protocol: (§1) The reaction is initiated by the addition of the Mg/ATP mix. After incubation for 40 minutes at room temperature, the reaction is stopped by the addition of phosphoric acid to a concentration of 0.5%.
INCUBATION: 40 min at Room temperature
COMPOUND DILUTION SCHEME: All compounds supplied were prepared to a working stock of 50× final assay concentration in 100% DMSO. Where appropriate, more concentrated stocks were diluted manually to 50× using 100% DMSO. Compounds supplied as powders were reconstituted to a 10 mM stock in 100% DMSO before further dilution to 50×.
ASSAY PROCEDURE: The required volume of the 50× stock of test compound was added to the assay before a reaction mix containing the enzyme and substrate was added. The reaction was initiated by the addition of ATP at the selected concentration. There was no pre-incubation of the compound with the enzyme/substrate mix prior to ATP addition.
Results are expressed as kinase activity remaining, as a percentage of the DMSO control. This is calculated using the following formula: Mean of Sample Counts−Mean of Blank Counts/Mean of Control Counts
(§2) For IC50 determinations, data are analyzed using XLFit version 5.3 (ID Business Solutions). Sigmoidal dose-response (variable slope) curves are fit based on the mean result for each test concentration using non-linear regression analysis. Where the top and/or bottom of the curve fall >10% out with 100 and 0, respectively, either or both of these limits may be constrained at 100 and 0, provided that the QC criterion on R2 is met.
Data set [3] deals with TNIK(h) (Homo sapiens (Human), UniProt Q9UKE5). Put plainly: TNIK Human STE Kinase Enzymatic Radiometric Assay.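 Note: remaining kinase activity relative to DMSO control, compound added without preincubation, reaction started with ATP, IC50 from variable-slope sigmoidal dose-response fit.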 It is filed as biochemical.
Chain of TNIK(h) (Q9UKE5 whole entry): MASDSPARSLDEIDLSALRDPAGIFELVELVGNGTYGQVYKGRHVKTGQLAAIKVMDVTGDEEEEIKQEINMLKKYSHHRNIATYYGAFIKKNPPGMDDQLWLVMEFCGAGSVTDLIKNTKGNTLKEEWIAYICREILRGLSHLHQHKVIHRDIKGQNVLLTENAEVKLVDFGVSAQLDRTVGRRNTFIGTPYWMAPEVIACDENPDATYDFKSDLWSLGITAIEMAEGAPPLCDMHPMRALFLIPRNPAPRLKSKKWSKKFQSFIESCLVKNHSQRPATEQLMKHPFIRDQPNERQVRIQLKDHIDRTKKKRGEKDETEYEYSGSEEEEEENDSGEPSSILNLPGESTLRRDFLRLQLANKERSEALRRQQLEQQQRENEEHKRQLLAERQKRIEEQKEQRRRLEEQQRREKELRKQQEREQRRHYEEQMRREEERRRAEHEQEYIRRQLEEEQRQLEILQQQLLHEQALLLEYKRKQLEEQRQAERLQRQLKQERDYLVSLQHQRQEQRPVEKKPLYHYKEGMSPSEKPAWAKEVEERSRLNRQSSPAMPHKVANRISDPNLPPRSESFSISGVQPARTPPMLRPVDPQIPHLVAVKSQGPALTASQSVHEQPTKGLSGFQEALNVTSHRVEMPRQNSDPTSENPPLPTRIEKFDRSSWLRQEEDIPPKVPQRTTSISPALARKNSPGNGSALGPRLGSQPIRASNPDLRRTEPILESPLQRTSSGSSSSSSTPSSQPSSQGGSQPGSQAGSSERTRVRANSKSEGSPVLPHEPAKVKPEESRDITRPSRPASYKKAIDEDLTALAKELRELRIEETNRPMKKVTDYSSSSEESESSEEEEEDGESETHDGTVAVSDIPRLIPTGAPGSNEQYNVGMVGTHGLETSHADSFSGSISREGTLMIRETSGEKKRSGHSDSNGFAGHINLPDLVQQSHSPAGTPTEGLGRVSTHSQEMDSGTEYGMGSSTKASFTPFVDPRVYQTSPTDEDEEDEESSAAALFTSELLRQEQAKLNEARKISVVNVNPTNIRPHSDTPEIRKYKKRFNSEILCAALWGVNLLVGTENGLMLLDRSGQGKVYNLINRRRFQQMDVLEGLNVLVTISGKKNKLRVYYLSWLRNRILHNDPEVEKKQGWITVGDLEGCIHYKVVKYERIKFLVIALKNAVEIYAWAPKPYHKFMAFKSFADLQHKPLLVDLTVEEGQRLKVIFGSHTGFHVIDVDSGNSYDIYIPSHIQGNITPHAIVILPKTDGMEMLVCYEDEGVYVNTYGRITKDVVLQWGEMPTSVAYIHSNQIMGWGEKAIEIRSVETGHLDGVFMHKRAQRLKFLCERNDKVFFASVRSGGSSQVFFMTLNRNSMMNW
Protocol: as §1
INCUBATION: 40 min at Room temperature
COMPOUND DILUTION SCHEME: All compounds supplied were prepared to a working stock of 50× final assay concentration in 100% DMSO. Where appropriate, more concentrated stocks were diluted manually to 50× using 100% DMSO. Compounds supplied as powders were reconstituted to a 10 mM stock in 100% DMSO before further dilution to 50×. ASSAY PROCEDURE: The required volume of the 50× stock of test compound was added to the assay before a reaction mix containing the enzyme and substrate was added. The reaction was initiated by the addition of ATP at the selected concentration. There was no pre-incubation of the compound with the enzyme/substrate mix prior to ATP addition. […] Results are expressed as kinase activity remaining, as a percentage of the DMSO control. This is calculated using the following formula:
as §2
A short description of data set [4]: Metabolic stability in human liver microsomes.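 Note: NADPH-supplemented human liver microsomes sampled at 0, 5, 10, 20, 30 and 60 min, parent compound quantified by LC-MS/MS, intrinsic clearance from first-order decay, no-cofactor incubation as control.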 It counts as in vitro ADME. The conditions noted are these: LM Clint; 1 μM test compound, 0.5 mg protein/mL microsome, 37° C., up to 60 min.
Protocol: Test Compound an Control Working Solution Preparation: Working solution: 5 μL of compound and control stock solution (10 mM in dimethyl sulfoxide (DMSO)) were diluted with 495 µL of acetonitrile (ACN) (intermediate solution concentration: 100 μM, 99% ACN).
Preparation Procedure: The appropriate amount of NADPH powder was weighed and diluted into a 10 mM MgCl2 solution (working solution concentration: 10 unit/mL; final concentration in reaction system: 1 unit/mL).
Preparation Procedure: The appropriate concentrations of microsome working solutions were prepared in 100 mM potassium phosphate buffer.
Stop Solution Preparation: Cold (4° C.) acetonitrile (ACN) containing 200 ng/mL tolbutamide and 200 ng/mL labetalol as internal standards (IS) was used as the stop solution.
Dilute liver microsomes to 0.56 mg/mL in 100 mM phosphate buffer.
Transfer 445 μL microsome working solutions (0.56 mg/mL) into pre-warmed ‘Incubation’ plates T60 and NCF60, Then pre-incubate ‘Incubation’ plates T60 and NCF60 for 10 min at 37° C. with constant shaking. Transfer 54 μL liver microsomes to blank plate, then add 6 μL NAPDH cofactor to blank plate, and then add 180 μL quenching solution to blank plate.
2.5.4 Add 5 μL compound working solution (100 μM) into ‘incubation’ plates (T60 and NCF60) containing microsomes and mix 3 times thoroughly.
For the NCF60 plate, add 50 μL of buffer and mix 3 times thoroughly. Start timing; plate will be incubated at 37° C. for 60 min while shaking.
For the T60 plate, mix 3 times thoroughly, and immediately remove 54 μL mixture for the 0-min time point to ‘Quenching’ plate. Then add 44 μL NAPDH cofactor to incubation plate (T60). Start timing; plate will be incubated at 37° C. for 60 min while shaking.
At 5, 10, 20, 30, and 60 min, add 180 μL quenching solution to ‘Quenching’ plates, mix once, and serially transfer 60 μL sample from T60 plate per time point to ‘Quenching’ plates.
For NCF60: mix once, and transfer 60 μL sample from the NCF60 incubation to ‘Quenching’ plate containing quenching solution at the 60-min time point.
All sampling plates are shaken for 10 min, then centrifuged at 4000 rpm for 20 minutes at 4° C.
Transfer 80 μL supernatant into 240 μL HPLC water, and mix by plate shaker for 10 min.
Each bioanalysis plate was sealed and shaken for 10 minutes prior to LC-MS/MS analysis.
The equation of first order kinetics was used to calculate T½ and Intrinsic clearance (CLint mic) in (L/min/mg).
Setting [5] is: ATP 70 μM, 40 min at room temperature, read-out: TNIK (IC50).

Usually IC50 stands for the concentration that gives 50% inhibition. Regarding `CC(C)n1cnc(-c2ccc(F)cc2)c1-c1nc(C(=O)Nc2ccc(CCO)cc2)c[nH]1` [Compound 111, 5′-(4-fluorophenyl)-N-(4-(2-hydroxyethyl)phenyl)-3′-isopropyl-1H,3′H-[2,4′-biimidazole]-4-carboxamide], the IC50 in data set [1] is 0.1 to 1 nM; in data set [2] it was above 120 nM; in data set [3] (setting [5]), 12 to 120 nM. In addition, the “Human Liver Microsome (μM/min/mg)” value in data set [4] is listed as “++ (10-100 μM/min/mg as ++)”.
In the case of `CC(C)n1cnc(-c2ccc(F)c(F)c2)c1-c1nc(C(=O)Nc2ccc(N3CCN(C)CC3)cc2)c[nH]1` [Compound 156, 5′-(3,4-difluorophenyl)-3′-isopropyl-N-(4-(4-methylpiperazin-1-yl)phenyl)-1H,3′H-[2,4′-biimidazole]-4-carboxamide], the IC50 is below 0.1 nM in data set [1], above 120 nM in data set [2] and 12 to 120 nM in data set [3]. Besides, in data set [4], the “Human Liver Microsome (μM/min/mg)” value is reported as “++ (10-100 μM/min/mg as ++)”.
As for `CN1CCN(c2ccc(NC(=O)c3c[nH]c(-c4c(-c5ccc(F)cc5)ncn4C(F)F)n3)cc2)CC1` [Compound 130, 3′-(difluoromethyl)-5′-(4-fluorophenyl)-N-(4-(4-methylpiperazin-1-yl)phenyl)-1H,3′H-[2,4′-biimidazole]-4-carboxamide], the IC50 in data set [1] is 0.1 to 1 nM; in data set [2] it was above 120 nM; in data set [3] (setting [5]) it was 12 to 120 nM. Besides, in data set [4], the “Human Liver Microsome (μM/min/mg)” value was “++ (10-100 μM/min/mg as ++)”.
